Patent US6103766A, “Phenylsulfonamide-phenylethylamines useful as dopamine receptors” (Pharmacia & Upjohn Company, priority 1999, dated 2000)
Values joined by “and” are separate entries in the source; they are usually repeats but may differ in a detail not shown here. Equal values may be shown once. Read-outs that look alike come from different tables or passages of the source.

Assays:
[1] = target: T1, dopamine D2 receptor (Rattus norvegicus, UniProt P61169); assay: Competition binding at cloned rat dopamine D2 receptor (D2-DOP-CLONE) with [3H]-86170; conditions: cloned rat receptor in CHO-K1 cells, [3H]-86170 (62 Ci/mmol, 2 nM), eleven dilutions, read-out: Ki (Receptor binding, IC50 values)
T1 construct: expressed in transfected cells; host or cells: CHO-K1
Experimental: (§1) Competition binding experiments employed eleven dilutions of test compounds of Formula I competing with [^3 H]-5-(dipropylamino)-5,6-dihydro-4H-imidazo(4,5,1-ij)quinolin-2(1H)-one (R-enantiomer) ("86170") (62 Ci/mmol, 2nM) and [^3 H]-spiperone ("SPI") (107 Ci/mmol, 0.5 nM) for D2 and D3 binding sites, respectively. (Lahti, R. A., Eur. J. Pharmacol., 202, 289 (1991)) In each experiment, cloned rat receptors expressed in CHO-K1 cells were used. (Chio, C. L., Nature, 343, 266 (1990); and Huff, R. M., Mol. Pharmacol. 45, 51-60 (1993)).

[2] = target: T2, dopamine D3 receptor (Rattus norvegicus, UniProt P19020); assay: Competition binding at cloned rat dopamine D3 receptor (D3-DOP-CLONE) with [3H]-spiperone; conditions: cloned rat receptor in CHO-K1 cells, [3H]-spiperone (107 Ci/mmol, 0.5 nM), eleven dilutions
T2 construct: expressed in transfected cells; host or cells: CHO-K1
Experimental: as §1

[3] = Ki (Receptor binding, IC50 values)
[4] = read-out: Ki (Receptor binding, IC50 values)

T1 sequence (P61169 whole entry): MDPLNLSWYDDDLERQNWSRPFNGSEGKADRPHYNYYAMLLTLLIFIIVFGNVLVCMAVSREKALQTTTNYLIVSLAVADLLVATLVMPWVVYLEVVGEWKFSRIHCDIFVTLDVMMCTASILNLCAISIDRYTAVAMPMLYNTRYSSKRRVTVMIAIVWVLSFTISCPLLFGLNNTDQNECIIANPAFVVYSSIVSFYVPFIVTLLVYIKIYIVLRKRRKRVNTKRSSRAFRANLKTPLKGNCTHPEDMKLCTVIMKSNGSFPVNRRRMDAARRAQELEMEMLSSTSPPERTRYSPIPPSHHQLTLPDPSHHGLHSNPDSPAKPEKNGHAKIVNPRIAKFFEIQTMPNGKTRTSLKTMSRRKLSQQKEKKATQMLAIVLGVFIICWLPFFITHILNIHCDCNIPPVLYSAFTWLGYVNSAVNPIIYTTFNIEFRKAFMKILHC
T2 sequence (P19020 whole entry): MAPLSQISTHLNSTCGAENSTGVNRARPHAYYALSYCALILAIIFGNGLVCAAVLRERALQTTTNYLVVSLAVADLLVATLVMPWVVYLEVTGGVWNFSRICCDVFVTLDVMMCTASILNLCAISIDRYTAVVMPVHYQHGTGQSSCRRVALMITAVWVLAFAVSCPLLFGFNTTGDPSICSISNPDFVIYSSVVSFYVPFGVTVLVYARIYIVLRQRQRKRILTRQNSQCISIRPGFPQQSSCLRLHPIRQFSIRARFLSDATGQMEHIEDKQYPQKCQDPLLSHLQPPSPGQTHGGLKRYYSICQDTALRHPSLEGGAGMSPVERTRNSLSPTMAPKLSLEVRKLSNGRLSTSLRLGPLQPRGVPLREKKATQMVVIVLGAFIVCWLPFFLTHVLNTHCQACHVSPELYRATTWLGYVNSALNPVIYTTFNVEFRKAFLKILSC

Ki [2, 4] | SMILES | Ki [1] | Ki [2, 3]
0.034 µM | CCCN(CCC)CCc1ccc(NS(=O)(=O)c2ccc(NC(C)=O)cc2)cc1 [Example 2, 2-[4-(4-acetamidobenzenesulfonamido)phenyl]ethyl-1-dipropylamine] | 1.07 µM | –
0.033 µM | CCCNCCc1ccc(NS(=O)(=O)c2ccc(C(F)(F)F)cc2)cc1 [Example 8, 2-[4-[(4-trifluoromethyl)benzenesulfonamido]phenyl]ethyl-1-propylamine] | 1.53 µM | –
0.028 µM | CCCNCCc1ccc(NS(=O)(=O)c2ccc(OC(F)(F)F)cc2)cc1 [Example 5, 2-[4-(4-trifluoromethoxybenzenesulfonamido)phenyl]ethyl-1-propylamine] | 2.39 µM | –
0.165 µM | CCCNCCc1ccc(NS(=O)(=O)c2ccc(F)cc2Cl)cc1 [Example 6, 2-[4-(2-chloro-4-fluorobenzenesulfonamido)phenyl]ethyl-1-propylamine] | 2.18 µM | –
0.014 µM and 0.026 µM | CCCNCCc1ccc(NS(=O)(=O)c2ccc(Cl)cc2Cl)cc1 [Example 3, 2-[4-(2,4-dichlorobenzenesulfonamido)phenyl]ethyl-1-propylamine] | 0.76 µM | –

Further lines, the compound ahead of its results:

SMILES | Ki [2, 4] | Ki [1] | Ki [2, 3]
CCCNCCc1ccc(NS(=O)(=O)c2ccc(Cl)cc2)cc1 [Example 4, 2-[4-(4-chlorobenzenesulfonamido)phenyl]ethyl-1-propylamine] | – | 0.677 µM | 0.018 µM
CCCN(CCC)CCc1ccc(NS(=O)(=O)c2ccc(Cl)cc2)cc1 [Example 1, 2-[4-(4-chlorobenzenesulfonamido)phenyl]ethyl-1-dipropylamine] | – | 0.629 µM | 0.0037 µM
CCCNCCc1cccc(NS(=O)(=O)c2ccccc2F)c1 [Example 9, 2-[3-(2-fluorobenzenesulfonamido)phenyl]ethyl-1-propylamine] | – | 0.645 µM | 0.054 µM
CCCNCCc1ccc(NS(=O)(=O)c2ccc(Br)cc2)cc1 [Example 7, 2-[4-(4-bromobenzenesulfonamido)phenyl]ethyl-propylamine] | – | 0.623 µM | 0.014 µM
CCCNCCc1cccc(NS(=O)(=O)c2cccc(Cl)c2)c1 [Example 10, 2-[3-(3-chlorobenzenesulfonamido)phenyl]ethyl-1-propylamine] | 0.111 µM | 1.07 µM | –
